Reference: patent US11390609B2, “Rho-associated protein kinase inhibitor, pharmaceutical composition comprising same, and preparation method and use thereof” (BEIJING TIDE PHARMACEUTICAL CO., LTD., priority 2017, dated 2022)

Molecular target: ROCK1 (Homo sapiens (Human), UniProt Q13464)
Test: ROCK1 kinase IC50 assay (biological test method similar to the ROCK2 assay)
Type: biochemical
Experimental: The kinase IC50 was determined by a commercialized CISBIO kinase detection kit, HTRF KinEASE-STK S2 kit (62ST2PEC). ROCK2 (01-119) employed in the reaction was purchased from Carna Biosciences.
Before the assay, the following working solutions as needed were formulated with corresponding reagents according to the instruction of the kinase detection kit: 1×kinase buffer, 5×STK-52 substrate working solution (1.5 μM) and 5×ATP working solution (1.5 μM), 5×ROCK2 kinase working solution, 4×Streptavidin-XL665 working solution, and 4×STK-Ab-Cryptate 2 detection solution. Then the assay was performed according to the following procedure.
A solution of a compound at a concentration of 10000 nM was prepared with the 1×kinase buffer containing 2.5% DMSO. Gradient dilution of the solution of the compound was performed with the kinase buffer containing DMSO, so as to obtain solutions of a test compound at 9 different concentrations. In addition to wells of test compounds, a positive well (containing all the reagents except the compound) and a negative well (containing all the reagents except the test compound and kinase) were set. Except for the control wells (positive and negative wells), a solution of a test compound (4 μL) was added to each of the reaction wells, and a solution of 2.5% DMSO was added to the control wells. Then the substrate ([…], 2 μL. 5×STK-S2 substrate working solution) was added to each of the reaction wells. The 5×ROCK2 kinase working solution (2 μL, containing 1.4 ng ROCK2 kinase) was added to each of the reaction wells except for the negative well, the volume of which was made up with the 1×kinase buffer (2 μL). The 5×ATP working solution (2 μL) was added to each of the reaction wells, and the mixtures were incubated at room temperature for 2 hours. After the kinase reaction was complete, the 4×Streptavidin-XL665 working solution was added to each of the reaction wells, the solutions were mixed, followed by immediate addition of the 4×STK-Ab-Cryptate 2 detection solution (5 μL), and the mixtures were incubated at room temperature for 1 hour. The fluorescence signal was read on ENVISION (Perkinelmer) (excitation wavelength: 320 nm, and emission wavelength: 665 nm and 615 nm). The inhibitory rate in each well was calculated based on the fluorescence intensity value: ER (Emission Ratio)=(fluorescence intensity at 665 nm/fluorescence intensity at 615 nm); inhibitory rate=(ERpositive−ERtest compound)/(ERpositive−ERnegative)*100%. Curves were plotted and fitted to obtain the median inhibitory concentration (IC50) of each teat compound with the PRISM 5.0 software.
According to a biological test method similar to the above, the IC50 values of the compounds on ROCK1 were tested.

Chain of ROCK1 (Q13464 whole entry, species assumed): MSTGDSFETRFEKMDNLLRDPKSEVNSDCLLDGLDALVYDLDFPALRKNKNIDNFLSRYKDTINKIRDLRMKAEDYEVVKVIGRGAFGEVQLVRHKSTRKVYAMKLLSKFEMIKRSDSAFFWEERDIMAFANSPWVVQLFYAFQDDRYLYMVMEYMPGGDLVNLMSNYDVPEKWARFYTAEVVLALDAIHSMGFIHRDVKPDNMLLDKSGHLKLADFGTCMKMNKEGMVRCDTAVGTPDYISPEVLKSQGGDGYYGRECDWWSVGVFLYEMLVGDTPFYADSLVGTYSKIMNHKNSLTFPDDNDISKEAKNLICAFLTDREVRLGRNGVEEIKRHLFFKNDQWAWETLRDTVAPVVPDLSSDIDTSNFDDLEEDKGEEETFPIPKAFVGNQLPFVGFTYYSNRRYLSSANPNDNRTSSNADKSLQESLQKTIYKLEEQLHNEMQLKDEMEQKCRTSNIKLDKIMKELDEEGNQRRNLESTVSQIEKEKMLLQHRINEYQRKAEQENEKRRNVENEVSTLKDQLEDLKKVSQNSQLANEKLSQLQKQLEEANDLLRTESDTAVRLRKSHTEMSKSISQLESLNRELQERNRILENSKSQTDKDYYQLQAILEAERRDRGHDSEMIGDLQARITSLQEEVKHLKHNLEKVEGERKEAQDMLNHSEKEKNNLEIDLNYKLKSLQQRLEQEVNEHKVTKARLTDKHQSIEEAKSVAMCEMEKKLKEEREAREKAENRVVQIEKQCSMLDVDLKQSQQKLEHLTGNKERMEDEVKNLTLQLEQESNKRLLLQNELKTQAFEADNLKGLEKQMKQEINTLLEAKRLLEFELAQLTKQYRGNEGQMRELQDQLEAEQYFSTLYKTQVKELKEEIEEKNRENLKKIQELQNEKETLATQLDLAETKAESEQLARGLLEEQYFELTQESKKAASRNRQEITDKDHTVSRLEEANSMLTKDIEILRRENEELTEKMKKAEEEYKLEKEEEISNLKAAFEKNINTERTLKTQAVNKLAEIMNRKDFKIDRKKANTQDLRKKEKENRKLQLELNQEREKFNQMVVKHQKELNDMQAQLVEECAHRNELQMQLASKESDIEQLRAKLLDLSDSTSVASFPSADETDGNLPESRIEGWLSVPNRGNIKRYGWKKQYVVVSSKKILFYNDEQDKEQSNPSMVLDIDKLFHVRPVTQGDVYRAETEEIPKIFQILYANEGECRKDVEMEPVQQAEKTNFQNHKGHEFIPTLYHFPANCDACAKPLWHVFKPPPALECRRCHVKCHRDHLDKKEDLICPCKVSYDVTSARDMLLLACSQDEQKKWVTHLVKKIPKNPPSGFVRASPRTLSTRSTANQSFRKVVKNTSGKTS

IC50 [nM] | Compound
2060 | CC(C)NC(=O)C1COc2ccc(-c3nccc(Nc4ccc5[nH]ncc5c4)n3)cc2O1 (stereo not shown) [TDI01103, 7-(4-((1H-indazol-5-yl)amino)pyrimidin-2-yl)-N-isopropyl-2,3-dihydrobenzo[b][1,4]dioxine-2-carboxamide]
870 | CC(C)NC(=O)c1cc2ccc(-c3nccc(Nc4ccc5[nH]ncc5c4)n3)cc2s1 [TDI01104, 6-(4-((1H-indazol-5-yl)amino)pyrimidin-2-yl)-N-isopropylben-zo[b]thiophene-2-carboxamide]
> 10000 | CNC(=O)c1cc2ccc(-c3nccc(Nc4ccc5[nH]ncc5c4)n3)cc2s1 [TDI01109, 6-(4-((1H-indazol-5-yl)amino)pyrimidin-2-yl)-N-methylben-zo[b]thiophene-2-carboxamide]
> 10000 | CN(C)C(=O)c1cc2ccc(-c3nccc(Nc4ccc5[nH]ncc5c4)n3)cc2s1 [TDI01110, 6-(4-((1H-indazol-5-yl)amino)pyrimidin-2-yl)-N, N-dimethylben-zo[b]thiophene-2-carboxamide]
1410 | O=C(NC1CC1)c1cc2ccc(-c3nccc(Nc4ccc5[nH]ncc5c4)n3)cc2s1 [TDI01111, 6-(4-((1H-indazol-5-yl)amino)pyrimidin-2-yl)-N-cyclopropylben-zo[b]thiophene-2-carboxamide]
554 | O=C(NC1CCOC1)c1cc2ccc(-c3nccc(Nc4ccc5[nH]ncc5c4)n3)cc2s1 (stereo not shown) [TDI01113, 6-(4-((1H-indazol-5-yl)amino)pyrimidin-2-yl)-N-(tetrahydrofuran-3-yl)benzo[b]thiophene-2-carboxamide]
> 10000 | O=C(Nc1ccnnc1)c1cc2ccc(-c3nccc(Nc4ccc5[nH]ncc5c4)n3)cc2s1 [TDI01116, 6-(4-((1H-indazol-5-yl)amino)-pyrimidin-2-yl)-N-(pyridazin-4-yl)benzo[b]-thiophene-2-carboxamide]
3270 | CC(C)NC(=O)c1cc2ccc(-c3nc(Nc4ccc5[nH]ncc5c4)c4ccn(CCN(C)C)c4n3)cc2s1 [TDI01122, 6-(4-((1H-indazol-5-yl)amino)-7-(2-(dimethylami-no)ethyl)-7H-pyrrolo[2,3-d]pyrimidin-2-yl)-N-isopropylben-zo[b]thiophene-2-carboxamide]
1370 | Cn1cc(NC(=O)c2cc3ccc(-c4nccc(Nc5ccc6[nH]ncc6c5)n4)cc3[nH]2)cn1 [TDI01134, 6-(4-((1H-indazol-5-yl)amino)-pyrimidin-2-yl)-N-(1-methyl-1H-pyrazol-4-yl)-1H-indole-2-carboxamide]
3000 | CC(C)NC(=O)c1cc2ccc(-c3nc(Nc4ccc5[nH]ncc5c4)c4occc4n3)cc2s1 [TDI01135, 6-(4-((1H-indazol-5-yl)amino)furo[3,2-d]pyrimidin-2-yl)-N-isopropylben-zo[b]thiophene-2-carboxamide]
827 | CC(C)NC(=O)c1cc2ccc(-c3nc(Nc4ccc5[nH]ncc5c4)c4sccc4n3)cc2s1 [TDI01136, 6-(4-((1H-indazol-5-yl)amino)thieno[3,2-d]pyrimidin-2-yl)-N-isopropylben-zo[b]thiophene-2-carboxamide]
839 | CC(C)NC(=O)c1cc2ccc(-c3nc(Nc4ccc5[nH]ncc5c4)c4sccc4n3)cc2[nH]1 [TDI01141, 6-(4-((1H-indazol-5-yl)amino)thieno[3,2-d]pyrimidin-2-yl)-N-isopropyl-1H-indole-2-carboxamide]
1480 | CC(C)NC(=O)c1cc2ccc(-c3nc(Nc4ccc5[nH]ncc5c4)c4cc[nH]c4n3)cc2[nH]1 [TDI01143, 6-(4-((1H-indazol-5-yl)amino)-7H-pyrrolo[2,3-d]pyrimidin-2-yl)-N-isopropyl-1H-indole-2-carboxamide]
1320 | CC(C)NC(=O)c1cc2ccc(-c3nc(Nc4ccc5[nH]ncc5c4)c4scnc4n3)cc2[nH]1 [TDI01149, 6-(7-((1H-indazol-5-yl)ami-no)thiazolo[4,5-d]pyrimidin-5-yl)-N-isopropyl-1H-indole-2-carboxamide]
892 | O=C(NC1CC1)c1cc2ccc(-c3nccc(Nc4ccc5[nH]ncc5c4)n3)cc2[nH]1 [TDI01151, 6-(4-((1H-indazol-5-yl)amino)-pyrimidin-2-yl)-N-cyclopropyl-1H-indole-2-carboxamide]
> 10000 | O=C(Nc1ccnnc1)c1cc2ccc(-c3nccc(Nc4ccc5[nH]ncc5c4)n3)cc2[nH]1 [TDI01152, 6-(4-((1H-indazol-5-yl)amino)-pyrimidin-2-yl)-N-(pyridazin-4-yl)-1H-indole-2-carboxaniide]

IC50 [nM] | Compound
2720 | O=C(Nc1ccncc1)c1cc2ccc(-c3nccc(Nc4ccc5[nH]ncc5c4)n3)cc2[nH]1 [TDI01153, 6-(4-((1H-indazol-5-yl)amino)-pyrimidin-2-yl)-N-(pyridin-4-yl)-1H-indole-2-carboxamide]
1990 | O=C(Nc1cnoc1)c1cc2ccc(-c3nccc(Nc4ccc5[nH]ncc5c4)n3)cc2[nH]1 [TDI01156, 6-(4-((1H-indazol-5-yl)amino)-pyrimidin-2-yl)-N-(isoxazol-4-yl)-1H-indole-2-carboxamide]
2240 | O=C(Nc1cnccn1)c1cc2ccc(-c3nccc(Nc4ccc5[nH]ncc5c4)n3)cc2[nH]1 [TDI01160, 6-(4-((1H-indazol-5-yl)amino)pyrimidin-2-yl)-N-(pyrazin-2-yl)-1H-indole-2-carboxamide]
> 10000 | O=C(Nc1ccncn1)c1cc2ccc(-c3nccc(Nc4ccc5[nH]ncc5c4)n3)cc2[nH]1 [TDI01161, 6-(4-((1H-indazol-5-yl)amino)-pyrimidin-2-yl)-N-(pyrimidin-4-yl)-1H-indole-2-carboxamide]
> 10000 | O=C(Nc1ccnnc1)c1cc2ccc(-c3nc(Nc4ccc5[nH]ncc5c4)cc4nccn34)cc2[nH]1 [TDI01164, 6-(7-((1H-indazol-5-yl)amino)-imidazo[1,2-c]pyrimidin-5-yl)-N-(pyridazin-4-yl)-1H-indole-2-carboxamide]
> 10000 | O=C(Nc1ccnnc1)c1cc2ccc(-c3ncnc(Nc4ccc5[nH]ncc5c4)n3)cc2[nH]1 [TDI01167, 6-(4-((1H-indazol-5-yl)amino)-1,3,5-triazin-2-yl)-N-(pyridazin-4-yl)-1H-indole-2-carboxamide]
5190 | O=C(Nc1ccnnc1)c1cc2ccc(-c3nc(Nc4ccc5[nH]ncc5c4)c4sccc4n3)cc2[nH]1 [TDI01175, 6-(4-((1H-indazol-5-yl)amino)-thieno[3,2-d]pyrimidin-2-yl)-N-(pyridazin-4-yl)-1H-indole-2-carboxamide]
521 | CC(CO)NC(=O)c1cc2ccc(-c3nccc(Nc4ccc5[nH]ncc5c4)n3)cc2[nH]1 (stereo not shown) [TDI01176, 6-(4-((1H-indazol-5-yl)amino)-pyrimidin-2-yl)-N-(1-hydroxypropan-2-yl)-1H-indole-2-carboxamide]
2780 | O=C(Nc1ccnnc1Cl)c1cc2ccc(-c3nccc(Nc4ccc5[nH]ncc5c4)n3)cc2[nH]1 [TDI01180]
947 | O=C(Nc1cnncc1Cl)c1cc2ccc(-c3nccc(Nc4ccc5[nH]ncc5c4)n3)cc2[nH]1 [TDI01181, 6-(4-((1H-indazol-5-yl)amino)-pyrimidin-2-yl)-N-(5-chloropridazin-4-yl)-1H-indole-2-carboxamide]
712 | O=C(Nc1ccc2[nH]ncc2c1)c1cc2ccc(-c3nccc(Nc4ccc5[nH]ncc5c4)n3)cc2[nH]1 [TDI01182, 6-(4-((1H-indazol-5-yl)amino)-pyrimidin-2-yl)-N-(1H-indazol-5-yl)-1H-indole-2-carboxamide]
1280 | O=C(Nc1ccnnc1)c1cc2cc(-c3nccc(Nc4ccc5[nH]ncc5c4)n3)ccc2[nH]1 [TDI01188, 5-(4-((1H-indazol-5-yl)amino)-pyrimidin-2-yl)-N-(pyridazin-4-yl)-1H-indole-2-carboxamide]
2530 | O=C(Nc1ccnnc1)c1c[nH]c2ccc(-c3nccc(Nc4ccc5[nH]ncc5c4)n3)cc12 [TDI01191, 5-(4-((1H-indazol-5-yl)amino)-pyrimidin-2-yl)-N-(pyridazin-4-yl)-1H-indole-3-carboxamide]
1100 | O=C(Nc1cn[nH]c1)c1cc2ccc(-c3nccc(Nc4ccc5[nH]ncc5c4)n3)cc2[nH]1 [TDI01199, 6-(4-((1H-indazol-5-yl)amino)-pyrimidin-2-yl)-N-(1H-pyrazol-4-yl)-1H-indole-2-carboxamide]
559 | CC(C)(C)OC(=O)n1cc(NC(=O)c2cc3ccc(-c4nccc(Nc5ccc6[nH]ncc6c5)n4)cc3[nH]2)cn1 [TDI01200, tert-butyl 4-(6-(4-((1H-indazol-5-yl)amino)-pyrimidin-2-yl)-1H-indole-2-carboxamido)-1H-pyrazole-1-carboxylate]
